Source: US20240327412A1, “FACTOR XIIA INHIBITORS” (KALVISTA PHARMACEUTICALS LIMITED, priority 2021, published 2024)

Target: T1, Human Factor XIIa (Homo sapiens, UniProt P00748)
T1 construct: Proteolytic cleavage of FXII to heavy and light chains of FXIIa dramatically increases catalytic activity; purchased Enzyme Research Laboratories
T1 sequence (P00748 373-615 limits assumed): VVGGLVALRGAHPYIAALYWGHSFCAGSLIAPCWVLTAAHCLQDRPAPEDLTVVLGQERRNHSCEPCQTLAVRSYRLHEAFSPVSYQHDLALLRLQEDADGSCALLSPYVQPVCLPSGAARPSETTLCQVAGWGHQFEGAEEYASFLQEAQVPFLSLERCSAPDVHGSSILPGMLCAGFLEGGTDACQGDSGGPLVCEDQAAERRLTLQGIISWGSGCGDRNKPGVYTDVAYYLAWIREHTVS
T1 sequence (P00748 20-372 partner limits assumed): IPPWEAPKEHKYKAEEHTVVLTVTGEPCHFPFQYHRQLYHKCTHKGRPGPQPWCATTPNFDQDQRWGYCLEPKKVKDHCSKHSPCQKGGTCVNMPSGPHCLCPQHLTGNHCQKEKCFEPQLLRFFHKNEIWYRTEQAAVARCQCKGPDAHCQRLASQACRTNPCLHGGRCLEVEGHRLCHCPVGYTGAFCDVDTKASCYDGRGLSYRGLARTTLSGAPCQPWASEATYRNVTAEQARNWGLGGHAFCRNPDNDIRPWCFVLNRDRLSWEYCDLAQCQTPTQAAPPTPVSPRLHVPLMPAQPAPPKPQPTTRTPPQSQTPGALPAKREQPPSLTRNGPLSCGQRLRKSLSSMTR
Assay: Determination of FXIIa inhibition (fluorogenic substrate H-DPro-Phe-Arg-AFC, IC50 assay)
Assay type: biochemical
Conditions: substrate at Km concentration, 25° C.; category scale; read-out: Human FXII IC50 (nm)
Description: In vitro inhibition of Factor XIIa was determined using an IC50 assay based on standard literature methods (see e.g Baeriswyl et al., ACS Chem. Biol., 2015, 10 (8) 1861; Bouckaert et al., European Journal of Medicinal Chemistry 110 (2016) 181). Human Factor XIIa (Enzyme Research Laboratories) was incubated at 25° C. with the fluorogenic substrate H-DPro-Phe-Arg-AFC (Peptide Protein Science) and various concentrations of the test compound. Protease activity was measured by monitoring the accumulation of liberated fluorescence from the substrate over 5 min at 25° C. The linear rate of fluorescence increase per minute was expressed as percentage (%) activity. The Km for the cleavage of the substrate by FXIIa was determined by standard transformation of the Michaelis-Menten equation. The compound inhibitor assays were performed at substrate Km concentration. IC50 values were calculated as the concentration of inhibitor giving 50% inhibition (IC50) of the uninhibited enzyme activity (100%).

Compound | IC50 [nM]
Cc1cnc2ccc(OCC34COC(CNc5ccccc5C#N)(C3)C4)cn12 [Example 6658, 2-(((4-(((3-methylimidazo[1,2-a]pyridin-6-yl)oxy)methyl)-2-oxabicyclo[2.1.1]hexan-1-yl)methyl)amino)benzonitrile] | 10000 to 40000
Cn1ccc(OCC23CC(CNc4cccc5c(N)nccc45)(CN2)C3)cc1=O [Example 13007, 4-((4-(((1-aminoisoquinolin-5-yl)amino)methyl)-2-azabicyclo[2.1.1]hexan-1-yl)methoxy)-1-methylpyridin-2(1H)-one] | 100 to 300
Cn1ccc(OCC23CN(C(=O)OCc4ccc5ccccc5c4)C(CNc4cccc5c(N)nccc45)(C2)C3)cc1=O [Example 12024, naphthalen-2-ylmethyl 1-(((1-aminoisoquinolin-5-yl)amino)methyl)-4-(((1-methyl-2-oxo-1,2-dihydropyridin-4-yl)oxy)methyl)-2-azabicyclo[2.1.1]hexane-2-carboxylate] | 100 to 300
Nc1nccc2c(NCC34CC(COc5ccccc5N5CCCC5=O)(CO3)C4)cccc12 [Example 6654, 1-(2-((1-(((1-aminoisoquinolin-5-yl)amino)methyl)-2-oxabicyclo[2.1.1]hexan-4-yl)methoxy)phenyl)pyrrolidin-2-one] | 10000 to 40000
Cn1ccc(OCC23CN(C(=O)OCc4ccccc4)C(CNc4ccnc5[nH]c(Cl)cc45)(C2)C3)cc1=O [Example 12025, benzyl 1-(((2-chloro-1H-pyrrolo[2,3-b]pyridin-4-yl)amino)methyl)-4-(((1-methyl-2-oxo-1,2-dihydropyridin-4-yl)oxy)methyl)-2-azabicyclo[2.1.1]hexane-2-carboxylate] | 1000 to 3000
Cn1ccc(OCC23CN(C(=O)Cc4cccc5[nH]ccc45)C(CNc4cccc5c(N)nccc45)(C2)C3)cc1=O [Example 12040, 4-((2-(2-(1H-indol-4-yl)acetyl)-1-(((1-aminoisoquinolin-5-yl)amino)methyl)-2-azabicyclo[2.1.1]hexan-4-yl)methoxy)-1-methylpyridin-2(1H)-one] | 10 to 100
COc1ccc(NC(=O)N2CC3(COc4ccn(C)c(=O)c4)CC2(CNc2cccc4c(N)nccc24)C3)cc1 [Example 12061, 1-(((1-Aminoisoquinolin-5-yl)amino)methyl)-N-(4-methoxyphenyl)-4-(((1-methyl-2-oxo-1,2-dihydropyridin-4-yl)oxy)methyl)-2-azabicyclo[2.1.1]hexane-2-carboxamide] | 1 to 10
Cn1ccc(OCC23CC(CNc4cccc5c(N)nccc45)(CN2C(=O)Oc2ccccc2Cl)C3)cc1=O [Example 13004, 2-chlorophenyl 4-(((1-aminoisoquinolin-5-yl)amino)methyl)-1-(((1-methyl-2-oxo-1,2-dihydropyridin-4-yl)oxy)methyl)-2-azabicyclo[2.1.1]hexane-2-carboxylate] | 100 to 300
CN1Cc2ccc(OCC34CN(C(=O)OCc5ccccc5)C(CNc5cccc6c(N)nccc56)(C3)C4)cc2C1=O [Example 12012, benzyl 1-(((1-aminoisoquinolin-5-yl)amino)methyl)-4-(((2-methyl-3-oxoisoindolin-5-yl)oxy)methyl)-2-azabicyclo[2.1.1]hexane-2-carboxylate] | 100 to 300
Cn1ccc(OCC23CN(C(=O)OCc4cccnc4)C(CNc4cccc5c(N)nccc45)(C2)C3)cc1=O [Example 12022, pyridin-3-ylmethyl 1-(((1-aminoisoquinolin-5-yl)amino)methyl)-4-(((1-methyl-2-oxo-1,2-dihydropyridin-4-yl)oxy)methyl)-2-azabicyclo[2.1.1]hexane-2-carboxylate] | 10 to 100
Cn1ccc(OCC23CNC(CNc4ccc5c(N)nccc5c4)(C2)C3)cc1=O [Example 12011, 4-((1-(((1-aminoisoquinolin-6-yl)amino)methyl)-2-azabicyclo[2.1.1]hexan-4-yl)methoxy)-1-methylpyridin-2(1H)-one] | 300 to 1000
Nc1nccc2c(NCC34CC(Cn5nccn5)(CO3)C4)cccc12 [Example 6647, N5-((4-((2H-1,2,3-triazol-2-yl)methyl)-2-oxabicyclo[2.1.1]hexan-1-yl)methyl)isoquinoline-1,5-diamine] | 40000 to 100000
Cn1ccc(OCC23CN(C(=O)Oc4ccccc4Cl)C(CNc4cccc5c(N)nccc45)(C2)C3)cc1=O [Example 12015, 2-chlorophenyl 1-(((1-aminoisoquinolin-5-yl)amino)methyl)-4-(((1-methyl-2-oxo-1,2-dihydropyridin-4-yl)oxy)methyl)-2-azabicyclo[2.1.1]hexane-2-carboxylate] | 10 to 100
Cn1ccc(OCC23CN(C(=O)c4ccccc4)C(CNc4cccc5c(N)nccc45)(C2)C3)cc1=O [Example 12035, 4-((1-(((1-aminoisoquinolin-5-yl)amino)methyl)-2-benzoyl-2-azabicyclo[2.1.1]hexan-4-yl)methoxy)-1-methylpyridin-2(1H)-one] | 10 to 100

Results, then the molecule that gave them:

IC50 [nM] | Compound
1000 to 3000 | Nc1nccc2c(NCC34CC(COc5ccn6nncc6c5)(CCO3)C4)cccc12 [Example 10969, N5-((5-(([1,2,3]triazolo[1,5-a]pyridin-5-yloxy)methyl)-2-oxabicyclo[3.1.1]heptan-1-yl)methyl)isoquinoline-1,5-diamine]
300 to 1000 | Cn1ccc2cc(OCC34COC(CNc5cccc6c(N)nccc56)(C3)C4)ccc2c1=O [Example 6643, 6-((1-(((1-aminoisoquinolin-5-yl)amino)methyl)-2-oxabicyclo[2.1.1]hexan-4-yl)methoxy)-2-methylisoquinolin-1(2H)-one]
3000 to 10000 | Nc1nccc2c(NCC34CC(COc5ccnnc5)(CCO3)C4)cccc12 [Example 10963, N5-((5-((pyridazin-4-yloxy)methyl)-2-oxabicyclo[3.1.1]heptan-1-yl)methyl)isoquinoline-1,5-diamine]
3000 to 10000 | Nc1nccc2c(NCC34CC(COc5ccncn5)(CCO3)C4)cccc12 [Example 10937, N5-((5-((pyrimidin-4-yloxy)methyl)-2-oxabicyclo[3.1.1]heptan-1-yl)methyl)isoquinoline-1,5-diamine]
1000 to 3000 | Nc1nccc2c(NCC34CC(COc5ccc6nncn6c5)(CO3)C4)cccc12 [Example 6634, N5-((4-(([1,2,4]triazolo[4,3-a]pyridin-6-yloxy)methyl)-2-oxabicyclo[2.1.1]hexan-1-yl)methyl)isoquinoline-1,5-diamine]
300 to 1000 | Nc1nccc2c(NCC34CC(COc5ccn6c(C(F)(F)F)nnc6c5)(CCO3)C4)cccc12 [Example 10961, N5-((5-(((3-(trifluoromethyl)-[1,2,4]triazolo[4,3-a]pyridin-7-yl)oxy)methyl)-2-oxabicyclo[3.1.1]heptan-1-yl)methyl)isoquinoline-1,5-diamine]
300 to 1000 | Nc1nccc2c(NCC34CC(COc5ccn(C(F)F)c(=O)c5)(CCO3)C4)cccc12 [Example 10975, 4-((1-(((1-aminoisoquinolin-5-yl)amino)methyl)-2-oxabicyclo[3.1.1]heptan-5-yl)methoxy)-1-(difluoromethyl)pyridin-2(1H)-one]
100 to 300 | Cc1cn2cc(OCC34COC(CNc5cccc6c(N)nccc56)(C3)C4)ccc2n1 [Example 6633, N5-((4-(((2-methylimidazo[1,2-a]pyridin-6-yl)oxy)methyl)-2-oxabicyclo[2.1.1]hexan-1-yl)methyl)isoquinoline-1,5-diamine]
10 to 100 | CCn1c(C)cc(OCC23CCOC(CNc4cccc5c(N)nccc45)(C2)C3)cc1=O [Example 10964, 4-((1-(((1-aminoisoquinolin-5-yl)amino)methyl)-2-oxabicyclo[3.1.1]heptan-5-yl)methoxy)-1-ethyl-6-methylpyridin-2(1H)-one]
100 to 300 | CN1CCc2cc(OCC34COC(CNc5cccc6c(N)nccc56)(C3)C4)ccc2C1=O [Example 6640, 6-((1-(((1-aminoisoquinolin-5-yl)amino)methyl)-2-oxabicyclo[2.1.1]hexan-4-yl)methoxy)-2-methyl-3,4-dihydroisoquinolin-1(2H)-one]
1000 to 3000 | Cn1cc(Cl)c(OCC23CCOC(CNc4cccc5c(N)nccc45)(C2)C3)cc1=O [Example 10933, 4-((1-(((1-aminoisoquinolin-5-yl)amino)methyl)-2-oxabicyclo[3.1.1]heptan-5-yl)methoxy)-5-chloro-1-methylpyridin-2(1H)-one]
10 to 100 | Nc1nccc2c(NCC34CC(COc5cc6n(c(=O)c5)CCC6)(CCO3)C4)cccc12 [Example 10972, 7-((1-(((1-aminoisoquinolin-5-yl)amino)methyl)-2-oxabicyclo[3.1.1]heptan-5-yl)methoxy)-2,3-dihydroindolizin-5(1H)-one]
